The target of one test is T1, human GPR61 N345A (Homo sapiens, UniProt Q9BZJ8, N345A).
T1 construct: expressed in transfected cells; host or cells: CHO-K1, transient (Fugene6)
Description: Functional cAMP assay (HTRF), transiently transfected CHO-K1 cells, GPR61 N345A mutant. The conditions noted are these: at up to 10 μM concentration. It counts as cell-based. From the text: (§1) The human GPR61 (reference sequence NM_031936.4) cDNA was synthesized and subcloned into pcDNA5/FRT/TO (Thermo Fisher, Pittsburgh, PA). The pcDNA5/FRT/TO/ human GPR61 plasmid was then transfected into the Flp-In™-CHO Cell Line (Thermo Fisher, Pittsburgh, PA) and a doxycycline-inducible clonal cell line was selected (CHO TREx hGPR61 WT). Sequences encoding untagged and HiBit/hemagglutinin (HA)-tagged versions of the wild-type human GPR61 were synthesized and cloned into pcDNA3.1. The HiBit ([…]) and HA ([…]) tags were sequentially included after the N-terminal initiator methionine. […]
(§2) Parental CHO-K1 cells were maintained at 37 °C in a humidified environment (5% CO2) and grown in Dulbecco’s Modified Eagle Medium (DMEM) F-12 media (Gibco, 11320033) supplemented with 10% FBS, 1% Glutamax (Gibco, 35050061) and 100units/ml penicillin and streptomycin (Gibco, 15140122. Cells were dissociated using a cell dissociation solution (Gibco, 13151-014), counted, and resuspended in complete culture media without antibiotics. Cells were then transiently transfected using Fugene6 (Promega) in a 384-well plate format (Corning, 3570). For each well, 7500 cells were transfected with 5 ng of receptor plasmid, 20 ng of carrier DNA (Promega, PAE4881) and 0.075 μl Fugene6 in a final volume of 25 μl. […]
(Changes in cAMP serve as a functional read-out for many G protein-coupled receptors.)

The next test has as its target Nav1.5 (Peak) (Homo sapiens, UniProt Q14524). Description: Nav1.5 (peak current) ion channel profiling, Qube384 automated patch clamp (standard and extended protocol). Format: cell-based. From the text:
105 hERG, Nav1.5 and Cav1.2 Ion Channel Profiling
106 Ionic curr ents wer e evalu ated in the whole-cell con figuration using the Qube384 automated planar
107 patch clamp platform (Sophion Bioscience A/S, Ballerup, Denmark). […]
116 HEPES, 2 Na2ATP, pH 7.2, 305 mOsM. […]
126 Nav1.5 current, from a holding potential of - 80 mV, a 200 ms prepulse to - 120 mV was used to
127 homogenize channel inactivation, followed by a 40 ms step to a test potential of - 15 mV.
128 Membrane potential was further depolarized to +40 mV for 200 ms to completely inactivate the
129 peak Nav1.5 current, followed by a ramp from +40 mV to - 80 mV (-1.2 mV/ms). This voltage
130 pattern was repeated at 0.1 Hz, with peak Nav1.5 defined as the maximum current during the step
131 to - 15 mV. All studies were conducted at 23° C.
132 Compounds were dissol ved and initially diluted in dimethyl sulfoxide (DMSO), with a final
133 dilution in external solution to generate final working concent rations. The final DMSO
134 concentration in all experiments was 0.33% (v/v).
135 For all protocols three vehicle periods each lasting 5 minutes were applied to establish a stable
136 baseline. For the standard protocol this was followed by the addition of increasing concentrations
137 of test compound, with each exposure lasting 5 minutes. For the “extended” protocol following
138 the three- vehi cle additional each well subsequentl y received a single concentration of compound.
139 This application was repeated three times for each well, via a flowthrough addition where the
140 solution was replaced wi th the same compound concentration with each addition. Each exposure
142 Patch clamp data were analyzed using Assay Software 6.4.72 (Sophion Bioscience A/S, Ballerup,
143 Denmark). Current amplitudes were determined by averaging the last 4 currents under each test
144 condition. The percentage inhibition of each compound was determined by taking the ratio of
145 current amplitude measured in the presence of various concentrations of the test compound
146 (ICompound) versus the vehicle control current (IVehicle):
148 A dose-response curve was generat ed and fit to the Hill equation by the Sophion Analyzer software
149 to determine an IC50 value for each compound. The minimum and the slope of the fit were free
150 fitted, with the top being fixed to 100% inhibition.
151 GABA Patch Clamp Assay
152 Compound effects on the human GABAA recepto r (α1β2γ2), stably express ed in human embryonic
153 kidney (HEK) cells, were examined in three modes of action: agonist, antagonist and positive
154 allosteric modulation (PAM) modes. Chloride currents evoked by the activation of the GABAA
155 recepto r wer e reco rded in the whole- cell patch clamp configuration with the automated Qube384®
156 platform (Sophion Bioscience A/S, Baltorpvej, Denmark). […]
In general terms: The patch-clamp technique gives a direct electrical read-out from membranes.

Test [1] concerns the target T2, HiBit-tagged wild-type GPR61 (Homo sapiens, UniProt Q9BZJ8).
T2 construct: expressed in transfected cells; host or cells: CHO-K1, transient (Fugene6)
Description: Receptor expression studies (HiBit surface and total expression), CHO-K1 cells. Format: cell-based. The conditions noted are these: effect of compound, Fig. 2b, c.
Description: as §1, §2

A further test concerns the target Human PDE10A1 (Homo sapiens, UniProt Q9Y233). Briefly: Phosphodiesterase Assay (SPA). It counts as biochemical.
In the next test the target is Human PDE8B (Homo sapiens, UniProt O95263). Description: Phosphodiesterase Assay (SPA). It counts as biochemical.
Human PDE8B, sequence (O95263 whole entry): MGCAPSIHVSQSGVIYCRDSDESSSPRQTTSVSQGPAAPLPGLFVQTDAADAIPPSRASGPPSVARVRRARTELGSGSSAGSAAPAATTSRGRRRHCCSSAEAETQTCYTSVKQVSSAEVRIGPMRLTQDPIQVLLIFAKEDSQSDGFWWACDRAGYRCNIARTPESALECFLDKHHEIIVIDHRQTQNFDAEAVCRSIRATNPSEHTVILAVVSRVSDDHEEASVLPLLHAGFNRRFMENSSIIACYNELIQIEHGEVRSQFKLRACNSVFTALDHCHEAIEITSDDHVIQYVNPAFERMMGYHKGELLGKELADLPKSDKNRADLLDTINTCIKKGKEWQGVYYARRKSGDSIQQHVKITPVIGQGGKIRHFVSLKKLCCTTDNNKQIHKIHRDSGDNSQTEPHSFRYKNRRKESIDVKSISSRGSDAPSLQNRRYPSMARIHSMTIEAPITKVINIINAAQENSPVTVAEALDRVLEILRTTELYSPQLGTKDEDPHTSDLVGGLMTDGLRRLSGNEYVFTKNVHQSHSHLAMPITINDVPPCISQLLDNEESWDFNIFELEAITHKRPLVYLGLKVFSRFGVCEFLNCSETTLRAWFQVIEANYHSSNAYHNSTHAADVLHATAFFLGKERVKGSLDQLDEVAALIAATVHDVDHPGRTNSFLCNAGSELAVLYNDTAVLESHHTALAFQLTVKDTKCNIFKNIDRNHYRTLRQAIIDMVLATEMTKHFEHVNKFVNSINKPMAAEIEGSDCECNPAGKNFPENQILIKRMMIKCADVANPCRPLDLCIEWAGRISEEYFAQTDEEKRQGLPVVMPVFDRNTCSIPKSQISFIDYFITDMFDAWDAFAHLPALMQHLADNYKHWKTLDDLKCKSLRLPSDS

Structures are written as SMILES. Like-named read-outs stand apart in the source and are kept apart here.

The text below walks through data of PMC10517971, “An inverse agonist of orphan receptor GPR61 acts by a G protein-competitive allosteric mechanism” (Nature Communications, 2023).

Nav1.5 (Peak), sequence (Q14524 whole entry): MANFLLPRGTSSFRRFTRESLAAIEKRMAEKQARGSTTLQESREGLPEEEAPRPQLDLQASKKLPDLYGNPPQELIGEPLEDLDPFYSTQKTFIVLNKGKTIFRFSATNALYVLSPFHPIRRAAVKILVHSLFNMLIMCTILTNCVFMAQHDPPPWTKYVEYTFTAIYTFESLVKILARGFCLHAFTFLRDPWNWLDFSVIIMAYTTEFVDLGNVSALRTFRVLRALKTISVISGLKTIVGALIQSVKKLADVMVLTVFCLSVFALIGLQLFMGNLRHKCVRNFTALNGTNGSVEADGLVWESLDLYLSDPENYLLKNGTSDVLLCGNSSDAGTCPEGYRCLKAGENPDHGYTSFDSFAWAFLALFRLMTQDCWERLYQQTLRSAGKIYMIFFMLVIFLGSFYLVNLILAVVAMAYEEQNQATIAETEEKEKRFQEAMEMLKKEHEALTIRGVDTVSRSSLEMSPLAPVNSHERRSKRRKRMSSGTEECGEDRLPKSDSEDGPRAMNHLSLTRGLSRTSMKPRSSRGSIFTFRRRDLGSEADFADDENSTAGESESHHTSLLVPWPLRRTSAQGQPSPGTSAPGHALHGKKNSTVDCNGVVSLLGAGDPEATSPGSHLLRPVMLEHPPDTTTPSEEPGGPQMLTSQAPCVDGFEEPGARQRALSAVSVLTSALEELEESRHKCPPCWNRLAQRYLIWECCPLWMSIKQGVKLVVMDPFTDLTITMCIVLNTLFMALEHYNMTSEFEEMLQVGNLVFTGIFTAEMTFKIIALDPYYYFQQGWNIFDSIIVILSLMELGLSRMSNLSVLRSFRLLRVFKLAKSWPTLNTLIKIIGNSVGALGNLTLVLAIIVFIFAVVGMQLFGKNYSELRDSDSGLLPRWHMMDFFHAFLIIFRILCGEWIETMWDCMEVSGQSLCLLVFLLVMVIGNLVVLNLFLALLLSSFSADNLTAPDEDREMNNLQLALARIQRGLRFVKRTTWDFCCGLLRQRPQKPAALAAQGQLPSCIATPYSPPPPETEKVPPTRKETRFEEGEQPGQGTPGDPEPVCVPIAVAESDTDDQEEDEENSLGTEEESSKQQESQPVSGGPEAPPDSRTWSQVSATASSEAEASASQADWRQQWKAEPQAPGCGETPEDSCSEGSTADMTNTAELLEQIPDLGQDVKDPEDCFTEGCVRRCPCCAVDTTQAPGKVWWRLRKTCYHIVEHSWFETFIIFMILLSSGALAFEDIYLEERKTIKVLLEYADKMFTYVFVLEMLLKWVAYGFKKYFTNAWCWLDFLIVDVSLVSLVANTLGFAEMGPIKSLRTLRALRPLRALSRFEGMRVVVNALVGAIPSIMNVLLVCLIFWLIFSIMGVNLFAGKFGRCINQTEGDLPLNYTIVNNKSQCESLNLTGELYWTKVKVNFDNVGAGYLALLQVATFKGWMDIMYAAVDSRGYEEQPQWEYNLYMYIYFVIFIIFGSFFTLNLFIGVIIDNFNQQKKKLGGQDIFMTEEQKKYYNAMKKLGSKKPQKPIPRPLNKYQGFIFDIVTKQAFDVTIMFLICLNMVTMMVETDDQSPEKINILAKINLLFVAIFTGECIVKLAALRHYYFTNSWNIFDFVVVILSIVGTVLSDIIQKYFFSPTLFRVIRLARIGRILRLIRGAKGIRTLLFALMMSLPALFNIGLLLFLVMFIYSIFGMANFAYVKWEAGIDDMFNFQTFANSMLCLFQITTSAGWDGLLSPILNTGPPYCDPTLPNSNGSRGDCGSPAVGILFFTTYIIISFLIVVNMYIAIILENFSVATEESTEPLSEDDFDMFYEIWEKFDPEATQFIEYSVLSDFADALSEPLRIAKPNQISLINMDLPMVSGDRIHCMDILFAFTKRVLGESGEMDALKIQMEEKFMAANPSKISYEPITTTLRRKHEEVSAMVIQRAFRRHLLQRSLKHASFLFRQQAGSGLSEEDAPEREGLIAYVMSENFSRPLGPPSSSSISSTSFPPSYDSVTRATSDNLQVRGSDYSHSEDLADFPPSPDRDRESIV
T1 sequence (Q9BZJ8 whole entry N345A): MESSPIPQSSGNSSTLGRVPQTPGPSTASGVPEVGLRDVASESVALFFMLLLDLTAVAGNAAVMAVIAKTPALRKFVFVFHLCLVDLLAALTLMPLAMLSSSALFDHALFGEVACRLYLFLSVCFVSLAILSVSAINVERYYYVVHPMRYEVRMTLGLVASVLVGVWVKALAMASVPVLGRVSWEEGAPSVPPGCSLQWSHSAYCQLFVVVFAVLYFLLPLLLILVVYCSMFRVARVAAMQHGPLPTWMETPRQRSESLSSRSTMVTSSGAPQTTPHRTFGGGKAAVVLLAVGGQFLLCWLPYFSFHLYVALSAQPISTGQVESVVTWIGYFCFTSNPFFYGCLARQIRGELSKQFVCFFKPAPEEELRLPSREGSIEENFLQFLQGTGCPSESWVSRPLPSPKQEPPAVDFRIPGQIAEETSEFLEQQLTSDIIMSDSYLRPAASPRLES
T2 sequence (Q9BZJ8 whole entry): as the sequence (Q9BZJ8 whole entry N345A) above, with A345N counted along it
Human PDE10A1, sequence (Q9Y233 1-779 isoform Q9Y233-1): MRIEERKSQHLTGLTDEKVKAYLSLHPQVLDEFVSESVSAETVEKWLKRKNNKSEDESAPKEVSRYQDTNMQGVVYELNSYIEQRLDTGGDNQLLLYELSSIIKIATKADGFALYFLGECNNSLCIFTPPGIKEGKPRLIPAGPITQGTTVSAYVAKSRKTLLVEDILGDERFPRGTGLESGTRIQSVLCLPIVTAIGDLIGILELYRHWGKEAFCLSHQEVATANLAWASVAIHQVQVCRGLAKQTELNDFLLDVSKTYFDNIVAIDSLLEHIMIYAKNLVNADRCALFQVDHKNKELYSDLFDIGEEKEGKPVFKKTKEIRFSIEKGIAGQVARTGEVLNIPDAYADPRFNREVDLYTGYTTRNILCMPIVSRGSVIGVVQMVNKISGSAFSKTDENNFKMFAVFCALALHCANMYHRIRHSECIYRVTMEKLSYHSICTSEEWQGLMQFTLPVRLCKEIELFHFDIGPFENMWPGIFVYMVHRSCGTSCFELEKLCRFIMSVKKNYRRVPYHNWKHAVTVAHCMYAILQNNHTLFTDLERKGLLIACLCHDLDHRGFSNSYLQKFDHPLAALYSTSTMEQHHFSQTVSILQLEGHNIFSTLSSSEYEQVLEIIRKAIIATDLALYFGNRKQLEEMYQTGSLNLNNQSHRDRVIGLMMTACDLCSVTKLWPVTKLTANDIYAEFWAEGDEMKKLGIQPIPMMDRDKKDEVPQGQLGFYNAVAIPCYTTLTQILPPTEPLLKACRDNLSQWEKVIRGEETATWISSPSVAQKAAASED

On to `CCOc1cc(C)nc(N(CCOC)S(=O)(=O)c2ccc(NCc3c(F)cncc3F)nc2OC)n1` [Compound 1], for which the “sensitivity of the receptor to the compound in the cAMP assay” value on human GPR61 N345A is “no sensitivity”. The concentration for half-maximal inhibition (IC50) (in general, the concentration that inhibits the measured activity by half) was over 100000 nM on Nav1.5 (Peak); over 100000 nM on Nav1.5 (Peak) (read-out: Ion Channel Extended Protocol IC50 (nM), Period 1st, Nav1.5 (Peak), extended protocol, 1st period); over 100000 nM on Nav1.5 (Peak) (read-out: Ion Channel Extended Protocol IC50 (nM), Period 2nd, Nav1.5 (Peak), extended protocol, 2nd period); over 100000 nM on Nav1.5 (Peak) (read-out: Ion Channel Extended Protocol IC50 (nM), Period 3rd, Nav1.5 (Peak), extended protocol, 3rd period); over 40 µM on Human PDE10A1; 9.07 µM at Human PDE8B. Further, the “cell surface expression of HiBit-tagged wild-type GPR61” value in test [1] is recorded as “increased”.
